Data: paper PMC5304334, “Antifouling potential of Nature-inspired sulfated compounds” (Scientific Reports, 2017)

Columns and labels:
Vibrio harveyi CECT 525 = assay: Antibacterial growth inhibition, Vibrio harveyi; format: cell-based; details: V. harveyi
Protocol: (§1) Antibacterial activities were evaluated against four strains of marine biofilm-forming bacteria Cobetia marina CECT 4278, Vibrio harveyi CECT 525, Halomonas aquamarina CECT 5000, and Pseudoalteromonas atlantica CECT 570, all from Spanish Type Culture Collection (CECT). The bacteria were inoculated and incubated for 24 h at 26 °C in marine broth (Difco) at an initial density of 0.1 (OD600) in 96 well flat-bottom microtiter plates. Sulfated compounds stock solutions were prepared in ultra-pure water. […] Bacterial growth inhibition in the presence of the test compounds was measured in quadriplicate by reading of optical density at 600 nm using a microplate reader (Biotek Synergy HT, Vermont, USA). Marine broth with ultra-pure water and penicilin-streptomycin-neomycin stabilized solution were used as negative (B) and positive (C) controls, respectively.
(§2) For the determination of maximal inhibitory concentrations (IC) a serial dilution of the stock solution was used to obtain final concentrations from 100 μM to 0.75 μM, the same range applied in antifouling bioassays plus one lower concentration, and the same procedure was applied.
Data from the anti-settlement and antibacterial screenings were analyzed using a one-way analysis of variance (ANOVA) followed by a Dunnett test against the control (p < 0.05). […]

[1] = system: Halomonas aquamarina CECT 5000; assay: Antibacterial growth inhibition, Halomonas aquamarina; format: cell-based; details: H. aquamarina
Protocol: as §1, §2
(§3) Data from the anti-settlement and antibacterial screenings were analyzed using a one-way analysis of variance (ANOVA) followed by a Dunnett test against the control (p < 0.05). Semi-maximum response concentration that inhibited 50% larval settlement (EC50), semi-maximum response concentration that inhibited 20% bacterial growth (EC20) and the median lethal dose (LC50) for each bioactive compound were assessed using Probit regression analysis. Pearson Goodness-of-fit (Chi-Square) significance was considered at p < 0.05 for all analyses, and 95% lower and upper confidence limits [95% LCL; UCL] were presented. Therapeutic ratio (LC50/EC50) was used to evaluate the effectiveness vs toxicity of compounds[31][53][54]. The software IBM SPSS Statistics 21 was used for statistical analysis.

[2] = system: Mytilus galloprovincialis plantigrades; assay: Anti-settlement bioassay with mussel plantigrades (effectiveness and mortality); format: in vivo; details: 250 and 50 μM, 15 h; versus negative control, p < 0.05 Dunnett
Protocol: M. galloprovincialis juvenile (0.5 cm shell length approximately) aggregates were collected from mussel beds from the intertidal rocky shore, during low neap tides at Memória beach, Matosinhos, Portugal (41°13′59″N; 8°43′28″W), and immediately transported to the laboratory. M. galloprovincialis plantigrade post-larvae (0.5–2 mm) were screened among the small mussel aggregates in a binocular magnifier (Olympus SZX2-ILLT), gently washed with filtered seawater to remove organic debris and sand particles and isolated in a petri dish with filtered seawater immediately before the bioassays.
For the screening bioassay, competent M. galloprovincialis plantigrades (showing exploring behavior, ie, moving their foot searching for the appropriate substrate to settle) were selected and exposed to the series of sulfated compounds 1–13 at two concentrations (250 and 50 μM) in 24-well microplates for 15 h, at 18 ± 1 °C, in the darkness. Bioassays time frame was selected based on preliminary bioassays to ensure that the response measured is reflecting the compounds effect. Test solutions were prepared in filtered seawater (previously treated by UV light, and carbon filters and mechanically filtered with […] filter before use) and obtained by dilution of the compounds stock solutions (50 mM) in ultra-pure water. Four well replicates were used per condition with five plantigrades per well and 2.5 mL of test solution. A negative control, with ultra-pure water was included in all bioassays, as well as a positive control with 5 μM CuSO4 (a potent AF agent). At the end of the exposure period, the anti-settlement activity was determined by the presence/absence of byssal threads produced by each individual efficiently attached for all the conditions tested.
as §3

## O=c1c(O[C@@H]2O[C@H](COS(=O)(=O)O)[C@@H](OS(=O)(=O)O)[C@H](OS(=O)(=O)O)[C@H]2OS(=O)(=O)O)c(-c2ccccc2)oc2cc(O[C@@H]3O[C@H](COS(=O)(=O)O)[C@@H](OS(=O)(=O)O)[C@H](OS(=O)(=O)O)[C@H]3OS(=O)(=O)O)ccc12 [Compound 4, 3,7-di(β-D-glucopyranosyl)flavone persulfate]
Vibrio harveyi CECT 525
  EC20, minimum concentration that inhibited 20% of bacterial growth: >100 µM
[1]; 12.5 μM, 24 h, 26 °C
  Bacterial growth inhibition in screening: significant inhibitory activity
[1]; 0.75–100 μM
  Bacterial growth inhibition at all the concentrations tested: less than 30%
[1]; Vreelandella aquamarina, CECT5000, 12.5 μM
  inhibition at 12.5 µM: 15.3%
[1]; Vreelandella aquamarina, CECT5000, 100 μM
  inhibition at 100 µM: 26.5%
[2]
  Anti-settlement activity in screening (result in words): did not show notable activity
